Assays:
CD45 [1] = biological target: T1, CD45 (Homo sapiens, UniProt P08575); assay: Phosphatase assay using pNPP as substrate; format: biochemical; conditions: CD45 phosphatase, pNPP substrate, pH 7.0; read-out: pNPP IC50
T1 construct: incubating the cytosolic portion of CD45 with the compounds and p-nitrophenyl phosphate (pNPP); purchased BIOMOL (Plymouth Meeting, Pa.)
T1 sequence (P08575 599-1306 limits assumed): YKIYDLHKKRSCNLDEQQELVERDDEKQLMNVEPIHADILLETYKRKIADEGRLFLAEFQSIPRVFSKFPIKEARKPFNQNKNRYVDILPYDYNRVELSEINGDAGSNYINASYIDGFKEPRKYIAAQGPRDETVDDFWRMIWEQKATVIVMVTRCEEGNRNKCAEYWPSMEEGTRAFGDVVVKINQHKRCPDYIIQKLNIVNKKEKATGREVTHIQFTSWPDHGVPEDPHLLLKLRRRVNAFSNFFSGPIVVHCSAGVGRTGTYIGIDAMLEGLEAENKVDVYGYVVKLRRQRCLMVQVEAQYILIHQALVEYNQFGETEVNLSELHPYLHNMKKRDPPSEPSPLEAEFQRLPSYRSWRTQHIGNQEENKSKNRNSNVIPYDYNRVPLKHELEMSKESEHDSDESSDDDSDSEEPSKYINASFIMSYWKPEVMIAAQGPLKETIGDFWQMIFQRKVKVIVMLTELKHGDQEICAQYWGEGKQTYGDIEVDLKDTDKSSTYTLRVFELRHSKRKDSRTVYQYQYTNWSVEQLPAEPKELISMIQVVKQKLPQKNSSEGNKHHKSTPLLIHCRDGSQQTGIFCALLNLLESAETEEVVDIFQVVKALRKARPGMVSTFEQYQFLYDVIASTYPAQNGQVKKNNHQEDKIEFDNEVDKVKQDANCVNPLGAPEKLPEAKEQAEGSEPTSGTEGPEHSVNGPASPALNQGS
Method: Phosphatase assay using pNPP as substrate:
CD45 enzyme was obtained from BIOMOL (Plymouth Meeting, Pa.). Phosphatase activity was assayed in a buffer containing final concentrations of 25 mM imidazole at pH 7.0, 50 mM NaCl, 2.5 mM ethylenediaminetetraacetic acid (“EDTA”), 5 mM dithiothreitol (“DTT”) and 10 μg/mL bovine serum albumin (“BSA”) using pNPP as a substrate.

CD45 [2] = biological target: T1, CD45; assay: Phosphatase assay using lck 10-mer as substrate; format: biochemical; conditions: CD45 phosphatase, lck carboxy-terminal peptide TEGQpYQPQP substrate, pH 7.2; read-out: Ick IC50
Method: Phosphatase assay using lck 10-mer as substrate:
Phosphatase activity was assayed in 96 well plates in a buffer containing final concentrations of 25 mM HEPES at pH 7.2, 5 mM DTT and 10 μg/mL BSA using the lck carboxy-terminal peptide TEGQpYQPQP as the substrate (Cho, H., Krishnaraj, R., Itoh, M., Kitas, E., Bannwarth, W., Saito, H., Walsh, C. T. 1993. Substrate specificities of catalytic fragments of protein tyrosine phosphatases (HPTPb, LAR, and CD45) toward the phosphotyrosylpeptide substrates and thiophosphotyrosylated peptides as inhibitors. Protein Science 2:977-984). Compounds were tested in a range from 30 to 0.01 μM in a final concentration of 5% DMSO. Enzyme was incubated with substrate with or without compound, at room temperature for 1.5 h. At the end of the incubation period, BIOMOL “Green Reagent” (BIOMOL, Plymouth Meeting, Pa.) was added to each well, the plates incubated at room temperature for 30 min and absorbance read at 620 nm.

T cells (PBMC) = assay: cells; format: cell-based, human; conditions: human PBMC, OKT3 30 ng/mL, [3H]thymidine; read-out: T cell prolif. IC50
Method: Cell isolation and T cell proliferation assay:
Whole blood was obtained from healthy human blood donors. Peripheral blood mononuclear cells (“PBMC”) were isolated using Lymphoprep density-gradient centrifugation (Nycomed Amersham, Oslo, Norway), washed, counted and resuspended at 2×10^6 cells/mL in RPMI 1640 medium containing glutamine, 0.1 mg/mL gentamycin and 10% heat inactivated human serum. PBMC were transferred to 96-well plates (2×10^5 cells/well) containing compound or vehicle control, with the final concentration of DMSO not to exceed 0.3%, and incubated for 1 hour before addition of the activating anti-CD3 antibody, OKT3 (30ng/mL). After 24 hours in culture, the cells were pulsed with [^3H]thymidine (1 μCi/well) overnight and harvested the next day onto 96-well Packard GF/C filter plates using a Packard Cell Harvester (Packard Instruments, Meriden, Conn.). The filter plate was dried, the bottom of the plate sealed, 25 μL of Microscint 20 scintillation fluid added to each well, the top of the plate sealed with TopSeal-A, and the plate counted on a Packard TopCount. The data from the TopCount is transferred into Excel 5 (Microsoft, Redmond, Wash.) and formatted for EC50 determination using Prism software (GraphPad Software, San Diego, Calif.).

[3] = Cytotoxicity assay (Calcein-AM uptake); conditions: human, PHA-expanded T-cell lymphoblasts from PBMC
Method: Calcein-AM (Molecular Probes. Eugene, Oreg.) uptake, as a quantitative measure of cell viability, was used to evaluate the toxic effect of compounds on T cells.
The T-cell lymphoblasts were purified by separation over Lymphoprep, plated at 2×10^5/well in a round bottom 96-well plate containing RPMI with compound and incubated overnight at 37° C. in an incubator containing 5% CO2. The dilution scheme and culture media were the same as those used in the T-cell proliferation assay. After the incubation period, cells were washed with Dulbecco's phosphate-buffered saline (D-PBS) and incubated with 1 μM Calcein-AM for 30-45 mim in D-PBS as described in the technical sheet provided with The LIVE/DEAD Viability/Cytotoxicity Kit from Molecular Probes.

Structure (SMILES) | IC50 (CD45 [1]) [µM] | IC50 (CD45 [2]) [µM] | IC50 (T cells (PBMC)) [µM] | CC50 [3] [µM]
O=C1C(=O)c2cc(NC(=O)c3c(Cl)cc(Cl)cc3Cl)ccc2-c2ccccc21 [Example 6, 2,4,6-Trichloro-N-(9,10-dioxo-9,10-dihydro-phenanthren-2-yl)-benzamide] | 0.5 | 16 | 1.5 | 12
O=C1C(=O)c2cc(NC(=O)c3ccccc3C(F)(F)F)ccc2-c2ccccc21 [Example 8, N-(9,10-Dioxo-9,10-dihydro-phenanthren-2-yl)-2-trifluoromethyl-benzamide] | 0.4 | 15 | 1.4 | 12
O=C(Nc1ccc2c(c1)-c1ccccc1C(=O)C2=O)c1ccccc1F [Example 12, N-(9,10-Dioxo-9,10-dihydro-phenanthren-3-yl)-2-fluoro-benzamide] | 1.3 | 6 | 3 | 15
Cc1ccc(S(=O)(=O)Nc2ccc3c(c2)C(=O)C(=O)c2ccccc2-3)cc1 [Example 15, N-(9,10-Dioxo-9,10-dihydro-phenanthren-2-yl)-4-methyl-benzenesulfonamide] | 1 | 15 | 6.4 | > 30
O=C1C(=O)c2cc(-c3ccsc3)ccc2-c2ccccc21 [Example 17, 2-Thiophen-3-yl-phenanthrene-9,10-dione] | 0.8 | > 30 | 1.8 | 7.3
O=C1C(=O)c2cc(-c3ccc4c(c3)OCO4)ccc2-c2ccccc21 [Example 21, 2-Benzo[1,3]dioxol-5-yl-phenanthrene-9,10-dione] | 0.99 | > 30 | 1.8 | 4.9
CCOc1ccccc1-c1ccc2c(c1)C(=O)C(=O)c1ccccc1-2 [Example 22, 2-(2-Ethoxy-phenyl)-phenanthrene-9,10-dione] | 3.6 | 9.7 | 0.7 | > 30
CC(C)CNC(=O)[C@H](CCC(N)=O)NC(=O)CNC(=O)c1ccc2c(c1)-c1ccccc1C(=O)C2=O [Example 23] | 1.1 | 3 | 20 | > 30
COC(=O)CCC(=O)Nc1cccc2c1-c1ccccc1C(=O)C2=O [Example 63, N-(9,10-Dioxo-9,10-dihydro-phenanthren-4-yl)-succinamic Acid Methyl Ester] | 0.7 | 2.6 | 1.2 | 8
COC(=O)CCC(=O)Nc1ccc2c(c1)C(=O)C(=O)c1cccc([N+](=O)[O-])c1-2 [Example 66, N-(5-Nitro-9,10-dioxo-9,10-dihydro-phenanthren-2-yl)-succinamic Acid Methyl Ester] | 0.9 | 1.8 | 3.5 | 13
COC(=O)CCCC(=O)Nc1cccc2c1-c1ccccc1C(=O)C2=O [Example 67, 4-(9,10-Dioxo-9,10-dihydro-phenanthren-4-ylcarbamoyl)-butyric Acid Methyl Ester] | 1 | 2.2 | 0.8 | 4
COC(=O)CCCCCCCCC(=O)Nc1cccc2c1-c1ccccc1C(=O)C2=O [Example 69, 9-(9,10-Dioxo-9,10-dihydro-phenanthren-4-ylcarbamoyl)-nonanoic Acid Methyl Ester] | 0.6 | 4.8 | 4.6 | 14
COC(=O)CCCC(=O)Nc1ccc2c(c1)C(=O)C(=O)c1ccccc1-2 [Example 70, 4-(9,10-Dioxo-9,10-dihydro-phenanthren-2-ylcarbamoyl)-butyric Acid Methyl Ester] | 0.4 | 4.7 | 0.5 | 3
COC(=O)CCCCCCC(=O)Nc1ccc2c(c1)C(=O)C(=O)c1cccc(NC(=O)CCCCCCC(=O)OC)c1-2 [Example 75, 7-[5-(7-Methoxycarbonyl-heptanoylamino)-9,10-dioxo-9,10-dihydro-phenanthren-2-ylcarbamoyl]-heptanoic Acid Methyl Ester] | 0.8 | 10 | 2.6 | 13
COC(=O)CCCCCCCCC(=O)Nc1ccc2c(c1)C(=O)C(=O)c1cccc(NC(=O)CCCCCCCCC(=O)OC)c1-2 [Example 76, 9-[5-(9-Methoxycarbonyl-nonanoylamino)-9,10-dioxo-9,10-dihydro-phenanthren-2-ylcarbamoyl]-nonanoic Acid Methyl Ester] | 9.3 | > 30 | 7 | > 30

Now from value to compound, other results behind:

IC50 (CD45 [1]) [µM] | IC50 (CD45 [2]) [µM] | Structure (SMILES) | IC50 (T cells (PBMC)) [µM] | CC50 [3] [µM]
0.5 | 13 | O=C1C(=O)c2cc(NC(=O)C(Cl)(Cl)Cl)ccc2-c2ccccc21 [Example 7, 2,2,2-Trichloro-N-(9,10-dioxo-9,10-dihydro-phenanthren-2-yl)-acetamide] | 0.5 | 9
1.2 | 4.9 | CC(C)(C)C(=O)Nc1ccc2c(c1)-c1ccccc1C(=O)C2=O [Example 10, N-(9,10-Dioxo-9,10-dihydro-phenenathren-3-yl)-2,2-dimethyl-propionamide] | 0.7 | 10
1.1 | > 30 | COC(=O)CCCCCCC(=O)Nc1ccc2c(c1)C(=O)C(=O)c1cccc([N+](=O)[O-])c1-2 [Example 64, 7-(5-Nitro-9,10-dioxo-9,10-dihydro-phenanthren-2-ylcarbamoyl)-heptanoic Acid Methyl Ester] | 4 | 14
1.1 | 3.1 | COC(=O)CCCC(=O)Nc1ccc2c(c1)C(=O)C(=O)c1cccc([N+](=O)[O-])c1-2 [Example 65, 4-(5-Nitro-9,10-dioxo-9,10-dihydro-phenanthren-2-ylcarbamoyl)-butyric Acid Methyl Ester] | 0.6 | 15
1 | 3.2 | COC(=O)CCCCCCC(=O)Nc1cccc2c1-c1ccccc1C(=O)C2=O [Example 68, 7-(9,10-Dioxo-9,10-dihydro-phenanthren-4-ylcarbamoyl)-heptanoic Acid Methyl Ester] | 1.8 | 7.5
0.5 | 3 | COC(=O)CCC(=O)Nc1ccc2c(c1)C(=O)C(=O)c1cccc(NC(=O)CCC(=O)OC)c1-2 [Example 73, N-[5-(3-Methoxycarbonyl-propionylamino)-9,10-dioxo-9,10-dihydro-phenanthren-2-yl]-succinamic Acid Methyl Ester] | 5 | 11
0.8 | 3.3 | COC(=O)CCCC(=O)Nc1ccc2c(c1)C(=O)C(=O)c1cccc(NC(=O)CCCC(=O)OC)c1-2 [Example 74, 4-[5-(4-Methoxycarbonyl-butyrylamino)-9,10-dioxo-9,10-dihydro-phenanthren-2-ylcarbamoyl]-butyric Acid Methyl Ester] | 2.6 | 19
